Assay results reported in US5439920A, “1,2,5,6-tetrahydropyridine derivative, process for preparing it and its applications in therapy” (Laboratoire L. Lafon, priority 1993, dated 1995).
Structures can show the parent of a compound that is named as a salt.

Legend:
[1] = target: T1, α2 receptors of rat cerebral cortex (Rattus norvegicus, UniProt P22909); experiment: Affinity for the α2 receptors of rat cerebral cortex ([^3 H]clonidine displacement); format: binding, Rats (male, CD1, Sprague-Dawley); details: rat cerebral cortex membranes, [^3 H]clonidine as marker
T1 construct: The cerebral cortex is immediately removed; from tissue; host or cells: rat cerebral cortex membranes
T1 sequence (P22909 1-465): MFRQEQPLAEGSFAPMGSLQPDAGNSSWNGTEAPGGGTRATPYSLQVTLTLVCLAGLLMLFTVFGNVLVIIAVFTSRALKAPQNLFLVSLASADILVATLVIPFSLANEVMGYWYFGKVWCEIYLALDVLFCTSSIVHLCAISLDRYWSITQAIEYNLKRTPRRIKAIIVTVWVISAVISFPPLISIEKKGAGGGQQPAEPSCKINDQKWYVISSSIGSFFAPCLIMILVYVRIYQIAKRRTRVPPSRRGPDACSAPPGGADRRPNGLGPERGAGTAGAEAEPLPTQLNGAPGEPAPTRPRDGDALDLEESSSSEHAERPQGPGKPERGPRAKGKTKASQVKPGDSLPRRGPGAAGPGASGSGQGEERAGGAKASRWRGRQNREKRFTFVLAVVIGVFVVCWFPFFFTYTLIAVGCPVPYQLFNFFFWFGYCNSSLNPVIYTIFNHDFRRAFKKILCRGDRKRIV
Method: Rats (male, CD1, Sprague-Dawley, 200-250 g) are sacrificed by decapitation. The cerebral cortex is immediately removed. The cerebral cortices of 4 rats are homogenized in 40 ml of buffer. The homogenates are centrifuged at 20,000 rpm for 15 minutes. The pellet is resuspended in 40 ml of buffer and subjected to a second centrifugation (20,000 rpm for 15 minutes). The pellet thereby obtained is suspended in 8 ml of buffer and then stored at -80° C. until used. On the day of the experiment, a membrane suspension is prepared from the frozen suspension. Aliquots of this membrane suspension are mixed with radioactive ligands (used as marker for each type of receptor) and with increasing concentrations of the test compound, and then incubated (final volume: 1 ml). Reaction is stopped by filtration through a 48-hole HARVESTER system (WHATMAN GF/B filter strip). The filter strip is then washed 3 times with 5 ml of buffer and thereafter placed in an automatic cutting system (BRANDEL). The cut filters fall into counting vials and 4 ml of scintillation fluid (Aquasafe 300, ZINSSER) are distributed automatically by the same system (BRANDEL). Each sample is subjected to counting of the radioactivity using a liquid scintillation counter (KONTRON). Three experimental series are carried out with the test compound, each experiment being carried out in duplicate. […]

[2] = tested on: NMRI mice; experiment: Pretoxicity in NMRI mice, intraperitoneal; format: in vivo; details: 3 animals per dose, IP, increasing doses 16-512 mg/kg
Method: Pretoxicity studies were performed in NMRI mice (3 animals per dose) with increasing doses of 16, 32, 64, 128, 256 and 512 mg/kg of products administered intraperitoneally. The dose causing the death of the three animals tested is given.

[3] = tested on: spontaneous motility; experiment: Action on spontaneous motility in mice; format: in vivo; details: Mus musculus, ip, 0.5 h, intraperitoneal, half an hour before test, motility recorded over 30 minutes, read-out: dose at and above which a significant decrease in locomotion is observed
Method: Half an hour after receiving the test compound intraperitoneally, the mice are placed in an activity-measuring device, where their motility is recorded over 30 minutes.

[4] = tested on: intergroup aggressive behaviour; experiment: Action on intergroup aggressive behaviour; format: in vivo; details: mice, half an hour after test compound, fights in 10 minutes
Method: After spending 3 weeks in each of the halves of a cage separated by an opaque partition, groups of 3 mice receive the test compound. Half an hour later, the two groups in the same cage are brought together by withdrawing the partition, and the number of fights occurring in the course of 10 minutes is noted.

[5] = tested on: α2 receptors; experiment: Interaction with yohimbine in mice; format: in vivo

Compound	IC50 [1]	dose causing the death of the three animals tested [2]	minimal effective dose [3]	minimal effective dose ([4]; Mus musculus, 0.5 h, read-out: dose at and above which the number of fights is decreased)	dose at which the number of fights is most particularly decreased [4]	effect of yohimbine on hypothermia induced by the compound ([5]; yohimbine 0.5 mg/kg i.p., compound 0.125 and 0.5 mg/kg i.p.)	effect of yohimbine on hypomotility induced by the compound ([5]; yohimbine 1 mg/kg i.p., compound 0.5 and 2 mg/kg i.p.)
CC(C)N1CCC=C(c2ccccc2)C1 [CRL 41 244, N-isopropyl-3-phenyl-l,2,5,6-tetrahydropyridine, reference compound]	700 nM						
C1=C(c2ccccc2)CNCC1 [Example 1, 3-phenyl-l,2,5,6-tetrahydropyridine hydrochloride]	26 nM	128 mg/kg	≥ 0.032 mg/kg	≥ 0.032 mg/kg	0.125 mg/kg	decreases the hypothermia	decreases the hypomotility
